# Patent publication US20080293587A1, “Method of Screening a Biological Target for Weak Interactions Using Weak Affinity Chromatography” (Transientic Interactions AB, priority 2005, published 2008)
# Target: bovine serum albumin (BSA) (Bos taurus, UniProt P02769)
# Conditions: bupivacain 1 mM; for retardation in zonal weak affinity chromatography in a well (peak apex): immobilized BSA, mobile phase 0.05 M sodium phosphate buffer pH 7.0, 20° C., UV 230 nm, propranolol 0.25 mM, sodium azide 0.5 mM
# Protocol: 200 mg of reference gel (diol-silica) and assay gel (BSA-diol-silica) were suspended in 1 ml methanol and packed into each well in a 96-well filtering system (Captiva® 96-well 10μ glassfiber filter plate from Ansys Technologies (Company), see FIG. 1) using vacuum applied to the wells. The gel in the wells was first washed with 5 ml MeOH and then with 5 ml 0.1 M sodium phosphate buffer pH 7.0. Filter discs were placed on top of the gel material in each well.
# Wells containing gel materials were washed carefully with 0.05 M sodium phosphate buffer pH 7.0 using vacuum collar to remove non-bound BSA, contaminants and entrapped air. The excess of buffer was gently removed from the surface of the wells using pipette and 10 μl of test substances were injected centrally in each wells which were then flushed with mobile phase (0.05 M sodium phosphate buffer pH 7.0). Vacuum was applied to the collar and the mobile phase was flowed into a 96 well collection plate (Nunclon, Nalgene-Nunc) within 8-10 seconds. Vacuum was then reduced and the collection plate (approximately 0.2 ml in each well) was replaced with a new one. This fraction collection process was repeated with 20-75 plates. During this procedure the wells were eluted with mobile phase continuously. […] The eluates in the plates were transferred carefully by automatic pipettes and weighed to estimate the retention volume. All procedures were performed at room temperature (20° C.). Eluted substances were detected by UV-scans at 230 nm. Chromatograms were obtained by plotting UV absorbance versus fraction volume.
# Chain of bovine serum albumin (BSA) (P02769 25-607): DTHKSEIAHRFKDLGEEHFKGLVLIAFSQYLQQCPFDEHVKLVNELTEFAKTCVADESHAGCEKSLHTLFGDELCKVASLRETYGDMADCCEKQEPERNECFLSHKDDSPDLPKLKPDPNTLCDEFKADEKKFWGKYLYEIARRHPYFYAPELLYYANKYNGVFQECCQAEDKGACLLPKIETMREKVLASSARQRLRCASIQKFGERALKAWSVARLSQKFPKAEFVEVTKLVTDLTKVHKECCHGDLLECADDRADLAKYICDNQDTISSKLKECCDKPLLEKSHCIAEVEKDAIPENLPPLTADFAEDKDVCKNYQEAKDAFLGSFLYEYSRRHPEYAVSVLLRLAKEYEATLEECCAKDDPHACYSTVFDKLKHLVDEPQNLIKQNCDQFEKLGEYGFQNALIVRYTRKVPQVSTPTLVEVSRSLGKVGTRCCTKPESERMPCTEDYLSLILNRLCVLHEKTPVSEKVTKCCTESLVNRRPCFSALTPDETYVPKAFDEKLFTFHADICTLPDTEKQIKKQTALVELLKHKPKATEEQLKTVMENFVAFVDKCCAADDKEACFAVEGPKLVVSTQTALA
SMILES,"well-to-well reproducibility of retardation in zonal weak affinity chromatography (three different wells, chromatography repeated once in each well)",retardation in zonal weak affinity chromatography in a well (peak apex)
CCCCN1CCCCC1C(=O)Nc1c(C)cccc1C (stereo not drawn) [Bupivacain],retarded,retarded
CC(C)NCC(O)COc1cccc2ccccc12 (stereo not drawn) [propranolol],,retarded
